Measured values: patent US7138361B2, “Herbicidal heterocycles” (E. I. du Pont de Nemours and Company, priority 2000, dated 2006)

What was measured:
Assay in all cases: Test C preemergence
Assay type in all cases: in vivo
[1] = tested on: giant foxtail (Setaria faberii)
Method in brief: (§1)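 Seeds are planted and treated before emergence; for the postemergence test, plants at 1- to 4-leaf stage (2–18 cm) receive the same formulation, a solvent blend containing surfactant. Plants stay in the greenhouse 12–14 days, then response is scored visually from 0 (none) to 100 (complete control).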

[2] = tested on: Nightshade
[3] = tested on: soybean (Glycine max)
Method in brief: as §1

[4] = tested on: lambsquarters (Chenopodium album)
Method in brief: as §1

[5] = tested on: corn (Zea mays); settings: preemergence
Method in brief: as §1

[6] = tested on: goosegrass (Eleusine indica)
Method in brief: as §1

[7] = tested on: yellow nutsedge (Cyperus esculentus)
Method in brief: as §1

[8] = tested on: pigweed (Amaranthus retroflexus)
Method in brief: as §1

[9] = tested on: morningglory (Ipomoea hederacea)
Method in brief: as §1

[10] = tested on: Surinam grass (Brachiaria decumbens)
Method in brief: as §1

[11] = tested on: crabgrass (Digitaria sanguinalis)
Method in brief: as §1

[12] = tested on: johnsongrass (Sorghum halepense)
Method in brief: as §1

[13] = tested on: bermudagrass (Cynodon dactylon)
Method in brief: as §1

[14] = tested on: Sunflower; settings: Rate 125 g/ha; scale 0 to 100, 0 no effect, 100 complete control
[15] = tested on: common ragweed (Ambrosia elatior)
Method in brief: as §1

[16] = tested on: cocklebur (Xanthium strumarium); settings: preemergence
Method in brief: as §1

[17] = tested on: velvetleaf (Abutilon theophrasti)
Method in brief: as §1

[18] = tested on: kochia (Kochia scoparia)
Method in brief: as §1

[19] = tested on: woolly cupgrass (Eriochloa villosa)
Method in brief: as §1

[20] = tested on: Sunflower; settings: Rate 250 g/ha, scale 0 to 100, 0 no effect, 100 complete control
[21] = Rate 125 g/ha, scale 0 to 100, 0 no effect, 100 complete control
[22] = preemergence, Rate 62 g/ha, scale 0 to 100
[23] = preemergence, Rate 500 g/ha, visual evaluation after 12 to 14 days
[24] = preemergence, Rate 250 g/ha, scale 0 to 100, 0 no effect, 100 complete control
[25] = Rate 250 g/ha, scale 0 to 100, 0 no effect, 100 complete control
[26] = Rate 500 g/ha, visual evaluation after 12 to 14 days

## CCCC(C)c1ccn(C2CCN(c3cccc(C(F)(F)F)c3)C2=O)n1 (centres unmarked) [Compound 100]
[1]; [21]
  Plant response rating, Foxtail, Giant: 10
[1]; [22]
  Plant response rating, Foxtail, Giant: 90
[1]; [23]
  Plant response rating (0 to 100), Foxtail, Giant: 100
[1]; [24]
  Plant response rating, Foxtail, Giant: 40
[2]; Rate 62 g/ha, scale 0 to 100
  Plant response rating, Nightshade: 0
[2]; [21]
  Plant response rating, Nightshade: 0
[2]; [25]
  Plant response rating, Nightshade: 0
[3]; [21]
  Plant response rating, Soybean: 0
[3]; [22]
  Plant response rating, Soybean: 0
[3]; [23]
  Plant response rating (0 to 100), Soybean: 0
[3]; [24]
  Plant response rating, Soybean: 0
[4]; [21]
  Plant response rating, Lambsquarters: 100
[4]; [22]
  Plant response rating, Lambsquarters: 90
[4]; [23]
  Plant response rating (0 to 100), Lambsquarters: 100
[4]; [24]
  Plant response rating, Lambsquarters: 100
[5]; Rate 62 g/ha, scale 0 to 100
  Plant response rating, Corn: 20
[5]; [26]
  Plant response rating (0 to 100), Corn: 20
[5]; [25]
  Plant response rating, Corn: 20
[6]; [21]
  Plant response rating, Goosegrass: 90
[6]; [22]
  Plant response rating, Goosegrass: 80
[6]; [23]
  Plant response rating (0 to 100), Goosegrass: 100
[6]; [24]
  Plant response rating, Goosegrass: 100
[7]; [21]
  Plant response rating, Nutsedge: 0
[7]; [22]
  Plant response rating, Nutsedge: 0
[7]; [23]
  Plant response rating (0 to 100), Nutsedge: 0
[7]; [24]
  Plant response rating, Nutsedge: 0
[8]; [21]
  Plant response rating, Pigweed: 0
[8]; [22]
  Plant response rating, Pigweed: 0
[8]; [23]
  Plant response rating (0 to 100), Pigweed: 100
[8]; [24]
  Plant response rating, Pigweed: 20
[9]; [21]
  Plant response rating, Morningglory: 0
[9]; [22]
  Plant response rating, Morningglory: 0
[9]; [23]
  Plant response rating (0 to 100), Morningglory: 0
[9]; [24]
  Plant response rating, Morningglory: 0
[10]; [21]
  Plant response rating, Surinam grass: 0
[10]; [22]
  Plant response rating, Surinam grass: 0
[10]; [23]
  Plant response rating (0 to 100), Surinam grass: 30
[10]; [24]
  Plant response rating, Surinam grass: 0
[11]; [21]
  Plant response rating, Crabgrass: 100
[11]; [22]
  Plant response rating, Crabgrass: 100
[11]; [23]
  Plant response rating (0 to 100), Crabgrass: 100
[11]; [24]
  Plant response rating, Crabgrass: 100
[12]; [21]
  Plant response rating, Johnsongrass: 90
[12]; [22]
  Plant response rating, Johnsongrass: 0
[12]; [23]
  Plant response rating (0 to 100), Johnsongrass: 100
[12]; [24]
  Plant response rating, Johnsongrass: 90
[13]; [21]
  Plant response rating, Bermudagrass: 90
[13]; [22]
  Plant response rating, Bermudagrass: 90
[13]; [23]
  Plant response rating (0 to 100 where 0 is no effect and 100 is complete control), Bermudagrass: 100
[13]; [24]
  Plant response rating, Bermudagrass: 100
[14]
  Plant response rating, Sunflower: 0
[15]; [21]
  Plant response rating, Ragweed, Common: 0
[15]; [22]
  Plant response rating, Ragweed, Common: 0
[15]; [23]
  Plant response rating (0 to 100), Ragweed, Common: 0
[15]; [24]
  Plant response rating, Ragweed, Common: 0
[16]; Rate 62 g/ha, scale 0 to 100
  Plant response rating, Cocklebur: 0
[16]; [26]
  Plant response rating (0 to 100), Cocklebur: 0
[16]; [25]
  Plant response rating, Cocklebur: 0
[17]; [21]
  Plant response rating, Velvetleaf: 0
[17]; [22]
  Plant response rating, Velvetleaf: 0
[17]; [23]
  Plant response rating (0 to 100), Velvetleaf: 0
[17]; [24]
  Plant response rating, Velvetleaf: 0
[18]; [21]
  Plant response rating, Kochia: 0
[18]; [22]
  Plant response rating, Kochia: 0
[18]; [23]
  Plant response rating (0 to 100), Kochia: 100
[18]; [24]
  Plant response rating, Kochia: 90
[19]; [21]
  Plant response rating, Cupgrass, Woolly: 20
[19]; [22]
  Plant response rating, Cupgrass, Woolly: 0
[19]; [23]
  Plant response rating (0 to 100), Cupgrass, Woolly: 100
[19]; [24]
  Plant response rating, Cupgrass, Woolly: 20
[20]
  Plant response rating, Sunflower: 0
